{"source": "patent US20080058211A1", "about": "“Method and Composition for the Modulation of Toxin Resistance in Plant Cells” (BOARD OF REGENTS, THE UNIVERSITY OF TEXAS SYSTEM, priority 2006, published 2008)", "key": {"Arabidopsis pollen [1]": {"system": "Arabidopsis pollen", "test": "in vitro pollen germination (Arabidopsis)", "type": "cell-based, Arabidopsis thaliana", "procedure": "Effects of Extracellular ATPγS and AMPαS on Pollen Germination. Arabidopsis pollen was germinated in pollen germination media (PGM) containing from about zero to about 400 μM ATPγS or AMPαS. […] The method of collection included vortexing flowers in PGM creating a homogenous suspension of pollen from tens to hundreds of flowers. This method caused the release of a small amount of ATP, 2-5 μM into the PGM (data not shown).\nThe nitric oxide signaling pathway mediates the inhibition of Arabidopsis pollen germination by ATPγS. To examine the downstream effectors involved in the inhibition of Arabidopsis pollen germination by ATPγS, different agonists and antagonists of the known nitric oxide signaling pathway were examined. […] Some of the nitric oxide signaling pathway agonists are water soluble while others are DMSO soluble.\nStrains and Growth Conditions. For the experiments related to the nitric oxide-ATP signaling relationship, all Arabidopsis thaliana plants were ecotype Wassilewskija (WS), and Medicago truncatula plants were strain A17. All of the plants were grown in Metro-Mix 200 soil at 24° C. with constant light. In vitro Pollen Germination. Arabidopsis flowers in stage 12-14 (Smyth et al., 1990) or Medicago truncatula flowers in stage F3 (Firnhaber et al., 2005) were collected and vortexed for 1 min in pollen germination media (PGM) (0.01% boric acid, 1 mM MgSO4, 1 mM CaCl2, 1 mM Ca(NO3)2, 5 mM HEPES, 18% Sucrose pH 7.0). The supernatant containing the pollen was collected by pipet, and up to three rounds of vortexing of the same pollen could be pooled together. The pollen suspended in PGM was then added in 10-12 μL drops to 400 μL PGM+1% agar that had been spread as a thin film across a microscope slide. The slides and pollen were then placed into humidity chambers, petri dishes with water saturated kimwipes, and allowed to germinate at 26° C. overnight. Pictures of the germinated pollen were taken with a digital camera attached to a brightfield microscope at 40×. The digital images were scored for the percent of pollen germinated using the AlphaEase software from Alpha Innotech. Pollen with tubes that were shorter than the diameter of the pollen grain were not counted as germinated or non-germinated. The chemicals: ATPγS, AMPαS, N2, 2-O-dibutyrylguanosine 3′:5′-cyclic monophospohate (Dib cGMP), Sildenafil citrate (Viagra™, Pfizer), and 2-(N,N-Diethylamino)-diazenolate 2-oxide (NONOate) were added to the pollen/PGM suspension prior to adding the drops to the PGM+1% agar. The chemicals 1H-[1,2,4]Oxadiazolo[4,3,-a]quinoxalin-1-one (ODQ), N-[4-[1-(3-Aminopropyl)-2-hydroxy-2-nitrosohydrazino]butyl]-1,3-propanediamine (SNAP), and 3-isobutyl-1-methylxanthine (IBMX) were diluted in DMSO and added to the pollen/PGM suspension to a final concentration of DMSO of 0.1%.\nFor successful pollen germination it was critical for the plants to be healthy and growing in slightly dry soil. To achieve this, the plants were briefly watered 1-2 days before the experiment. As Johnson-Brousseau and McCormick note in their paper (Johnson-Brousseau and McCormick 2004), a solid base is necessary for best in vitro germination of Arabidopsis pollen. The pollen would not germinate in liquid PGM if not overlaid on a solid PGM+1% agar base, and the vortexing and deposition of the pollen/PGM suspension needed to take place in less than 30 minutes or germination rates dropped considerably."}, "Arabidopsis pollen tubes": {"system": "Arabidopsis pollen tubes", "test": "pollen tube elongation", "type": "cell-based, Arabidopsis thaliana", "procedure": "Arabidopsis pollen tube elongation is inhibited by ATPγS. As vesicles fuse to deliver membranes to the tip of elongating pollen tubes, ATP is likely to be released. So ATPγS and AMPαS were investigated for their ability to affect pollen tube elongation. After pollen tubes had begun to grow, from about 0 to about 250 μM ATPγS or AMPαS were added and the subsequent growth rate was determined.\nBlocking the nitric oxide signaling pathway reverses the inhibition of Arabidopsis elongation by ATPγS. The inhibition of Arabidopsis pollen tube elongation was also mediated via the NO signaling pathway. Pollen tube growth rates were measured in 0.5% DMSO with and without 100 μM ATPγS.\nMeasurements of pollen tube elongation. Pollen was germinated as described above except 10 μL drops of pollen/PGM suspension were added to 60 μL of PGM+1% agar that had been deposited into a concavity slide. The pollen was allowed to germinate for 1-2 h, so that pollen tubes were clearly visible. Then 90 μL of PGM or PGM containing ATPγS, AMPαS, DMSO or ODQ was added and a photo was taken using a brightfield microscope at 40×. The coordinates of each photo were noted, so that the exact pollen tubes could be photographed 50-60 minutes later. Using Image J, the pollen tube lengths for individual pollen tubes were measured and a growth rate of μm/min was determined."}, "[2]": {"system": "nitric oxide levels in elongating Arabidopsis pollen tubes", "test": "nitric oxide in elongating pollen tubes, DAF-2D fluorescence", "type": "cell-based, Arabidopsis thaliana", "conditions": "125 μM", "procedure": "Increased extracellular ATPγS increases nitric oxide production in elongating pollen tubes. In addition to using agonists and antagonists to indirectly study the relationship of eATPγS and nitric oxide, direct measurements of increases in nitric oxide after application of ATPγS and AMPαS were examined. Pollen grains have a high level of auto-fluorescence and the nitric oxide levels in elongating Arabidopsis pollen tubes were determined using DAF-2D, a fluorescent marker for the presence of nitric oxide that was dissolved in DMSO. Elongating pollen tubes were treated with DAF-2D alone or with ATPγS or AMPαS.\nMeasurements of NO in growing pollen tubes treated with ATPγS or AMPαS. Pollen was germinated as described for the pollen elongation measurements. After 1-2 hours when pollen tubes were clearly visible, 90 μL of PGM containing 5 μM 4,5-diaminofluorescein diacetate (DAF-2D, Molecular Probes) with or without ATPγS or AMPαS was added. […] Using Image J, the average fluorescence for the pollen tubes on each slide and each time point were determined. Since background fluorescence for each slide varied, three areas where no pollen tubes were present were averaged and subtracted from the pollen tube averages for each slide. Pollen tubes with and without nucleotides were compared to each other at similar time points to determine if there was a difference in fluorescence."}, "[3]": {"system": "root hairs of Arabidopsis thaliana", "conditions": "cited from earlier work"}, "root hairs": {"system": "root hairs", "conditions": "cited from earlier work"}, "[Ca^2+]cyt": {"system": "[Ca^2+]cyt", "conditions": "dextran-conjugated calcium green as reporter; cited from earlier work"}, "[4]": {"system": "[Ca^2+]cyt in excised roots", "conditions": "cited from earlier work"}, "[5]": {"system": "ATMEKK1, ATMPK3, ATPK19, ERF2, ERF3, ERF4 and ACS6 genes", "conditions": "application of 500 μM; cited from earlier work"}, "Arabidopsis leaves": {"system": "Arabidopsis leaves", "conditions": "applied into intercellular spaces of leaves; cited from earlier work"}, "LOX2, ACS6, PAL1": {"system": "LOX2, ACS6, PAL1", "conditions": "cited from earlier work"}, "roots": {"system": "roots", "conditions": "in vivo; cited from earlier work"}, "maize roots": {"system": "maize roots", "conditions": "concentrations that inhibited gravitropic growth; cited from earlier work"}, "Arabidopsis roots": {"system": "Arabidopsis roots", "conditions": "concentrations that inhibited gravitropic growth; cited from earlier work"}, "Arabidopsis pollen [6]": {"system": "Arabidopsis pollen", "conditions": "cited from earlier work"}, "[7]": {"system": "Medicago truncatula pollen", "test": "in vitro pollen germination (Medicago)", "type": "cell-based", "procedure": "To determine if the affects of ATPγS on pollen germination was specific to Arabidopsis or a more generalized phenomenon, Medicago truncatula was also examined.\nStrains and Growth Conditions. For the experiments related to the nitric oxide-ATP signaling relationship, all Arabidopsis thaliana plants were ecotype Wassilewskija (WS), and Medicago truncatula plants were strain A17. All of the plants were grown in Metro-Mix 200 soil at 24° C. with constant light. In vitro Pollen Germination. Arabidopsis flowers in stage 12-14 (Smyth et al., 1990) or Medicago truncatula flowers in stage F3 (Firnhaber et al., 2005) were collected and vortexed for 1 min in pollen germination media (PGM) (0.01% boric acid, 1 mM MgSO4, 1 mM CaCl2, 1 mM Ca(NO3)2, 5 mM HEPES, 18% Sucrose pH 7.0). The supernatant containing the pollen was collected by pipet, and up to three rounds of vortexing of the same pollen could be pooled together. The pollen suspended in PGM was then added in 10-12 μL drops to 400 μL PGM+1% agar that had been spread as a thin film across a microscope slide. […] The digital images were scored for the percent of pollen germinated using the AlphaEase software from Alpha Innotech. Pollen with tubes that were shorter than the diameter of the pollen grain were not counted as germinated or non-germinated. […]"}, "[8]": {"system": "[Ca^2+]cyt in Arabidopsis seedlings", "conditions": "Arabidopsis seedlings (Jeter et al., 2004); cited from earlier work"}, "Δ[Ca^2+]cyt": {"system": "Δ[Ca^2+]cyt", "conditions": "co-application with OGA; cited from earlier work"}, "[9]": {"conditions": "PGM with about zero to about 400 μM"}}, "note": "pEC50: −log10 of the molar value.", "data": [{"smiles": "Nc1ncnc2c1ncn2[C@@H]1O[C@H](COP(O)(O)=S)[C@@H](O)[C@H]1O", "note": "[AMPαS]", "values": [{"measurement": "agonist of pollen responses", "setting": "Arabidopsis pollen [1]", "result": "is not"}, {"measurement": "percent of germinated pollen", "setting": "Arabidopsis pollen [1]; [9]", "result": "did not significantly change"}, {"measurement": "effect on pollen tube elongation rates", "setting": "Arabidopsis pollen tubes; up to about 250 μM", "result": "no significant effect"}, {"measurement": "DAF-2D fluorescence", "setting": "[2]", "result": "did not significantly change"}]}, {"smiles": "Nc1ncnc2c1ncn2[C@@H]1O[C@H](COP(=O)(O)OP(=O)(O)OP(=O)(O)O)[C@@H](O)[C@H]1O", "note": "[ATP]", "values": [{"measurement": "induction of membrane depolarization", "setting": "[3]; applied nucleotide or phosphate", "result": "induced large depolarizations"}, {"measurement": "pEC50", "setting": "[3]; dose-response studies, read-out: half-maximal depolarization", "result": "~3.40"}, {"measurement": "increase in root hair growth", "setting": "root hairs", "result": "not"}, {"measurement": "change in [Ca2+]cyt", "setting": "[Ca^2+]cyt", "result": "no change"}, {"measurement": "increase in [Ca2+]cyt", "setting": "[4]; 300 nM ATP, excised roots, 10 mM CaCl2, in less than about 10 seconds", "result": 2, "unit": "fold"}, {"measurement": "[Ca2+]cyt after treatment", "setting": "[4]; 1 μM ATP, from ca. 100 nM", "result": "over 400 nM"}, {"measurement": "abundance of mRNAs (MAP kinases, ERF2, ERF3, ERF4, ACS6)", "setting": "[5]", "result": "induced an increased abundance"}, {"measurement": "concentration sufficient to induce significant superoxide production", "setting": "Arabidopsis leaves", "result": 500, "unit": "nM"}, {"measurement": "message abundance for PAL1", "setting": "LOX2, ACS6, PAL1", "result": "increased"}, {"measurement": "expression of LOX2 and ACS6", "setting": "LOX2, ACS6, PAL1; micromolar concentrations that induced superoxide production", "result": "up-regulated"}, {"measurement": "concentration that could inhibit the straight growth of roots", "setting": "roots", "result": 3, "unit": "mM"}, {"measurement": "auxin transport", "setting": "maize roots", "result": "inhibited auxin transport"}, {"measurement": "auxin transport", "setting": "Arabidopsis roots", "result": "inhibited auxin transport"}, {"measurement": "concentration shown to affect pollen germination", "setting": "Arabidopsis pollen [6]; Steinenbrunner et al., 2003", "result": "1 to 2", "unit": "mM"}]}, {"smiles": "Nc1ncnc2c1ncn2[C@@H]1O[C@H](COP(=O)(O)OP(=O)(O)OP(O)(O)=S)[C@@H](O)[C@H]1O", "note": "[ATPγS]", "values": [{"measurement": "inhibition of pollen germination", "setting": "Arabidopsis pollen [1]; 50 μM, 0.1% DMSO", "result": "inhibits"}, {"measurement": "inhibition of pollen germination", "setting": "Arabidopsis pollen [1]; 50 μM, series with water-soluble agonists", "result": "not inhibitory"}, {"measurement": "inhibition of pollen germination", "setting": "Arabidopsis pollen [1]; 100 μM, 0.1% DMSO", "result": "does not inhibit"}, {"measurement": "inhibition of pollen germination", "setting": "Arabidopsis pollen [1]; 100 μM, series with water-soluble agonists", "result": "inhibitory"}, {"measurement": "concentration from which the pollen germination rate significantly decreased", "setting": "Arabidopsis pollen [1]; [9]", "result": "about 100 μM"}, {"measurement": "concentrations required for the responses of pollen", "setting": "Arabidopsis pollen [1]; pollen germination and growth", "result": "100 to 200", "unit": "µM"}, {"measurement": "concentration from which pollen germination rates decrease", "setting": "[7]", "result": 200, "unit": "µM"}, {"measurement": "concentration that significantly inhibited pollen tube elongation", "setting": "Arabidopsis pollen tubes; about 0 to about 250 μM added after tubes had begun to grow", "result": "more than 150 μM"}, {"measurement": "DAF-2D fluorescence", "setting": "[2]", "result": "significantly increased"}, {"measurement": "concentrations needed to induce increases in [Ca2+]cyt", "setting": "[8]", "result": "100 to 200", "unit": "µM"}, {"measurement": "effect on Δ[Ca2+]cyt together with OGA", "setting": "Δ[Ca^2+]cyt", "result": "mutually enhanced"}, {"measurement": "concentration that could inhibit the straight growth of roots", "setting": "roots", "result": 0.3, "unit": "mM"}, {"measurement": "pollen germination", "setting": "Arabidopsis pollen [6]; wild-type pollen, μM levels", "result": "inhibits pollen germination"}]}]}
